PubChem BioAssay AID743236 (The Scripps Research Institute Molecular Screening Center, 2013)
The source made the active and inactive calls. The rule behind the calls is not given here.

Tested on: Ga16-expressing cells, calcium fluorescence, agonist counterscreen
Experiment: nonselective Ga16 agonists, potency, late-stage follow-up, counter-screen for TAAR1 antagonist project, cell-based, fluorescence, dose response (AID 743236)

SMILES | EC50
Cc1nn(Cc2c(F)c(F)c(F)c(F)c2F)c(C)c1NC(=O)c1ccc(COc2ccccc2Cl)cc1 | > 29.9 µM (inactive)
O=C(NCCn1cc(SCc2ccccc2F)c2ccccc21)c1c(F)cccc1F | > 29.9 µM (inactive)
COc1cccc(-c2nn(-c3ccccc3)cc2C(=O)Nc2nccs2)c1 | > 29.9 µM (inactive)
Cc1coc(NC(=O)CSc2nc(-c3ccc(Cl)cc3)cc(C(F)(F)F)c2C#N)n1 | > 29.9 µM (inactive)
CC(=O)c1ccc(NC(=O)c2ccc(COc3ccccc3[N+](=O)[O-])o2)cc1 | > 29.9 µM (inactive)
Cc1ccc(CSCC(=O)Nc2cc(S(=O)(=O)N3CCOCC3)ccc2OCC(F)(F)F)cc1 | > 29.9 µM (inactive)
Cc1cccc(C(C#N)c2nc3ccccc3nc2C(F)(F)F)c1 (centres undefined) | > 29.9 µM (inactive)
COc1cc(NC(=O)c2cc3ccccc3o2)c(OC)cc1Cl | > 29.9 µM (inactive)
CCCCC(=O)Nc1ccc(C(=O)Nc2ccc(S(=O)(=O)N3CCCC3)cc2)cc1 | > 29.9 µM (inactive)
